Results published in patent US20040127718A1, “Substituted imidazoles” (Novo Nordisk A/S, priority 2001, published 2004).

Tests used:
H3 receptor [1] = target: T1, H3 receptor (Homo sapiens, UniProt Q9Y5N1); test: Functional Assay: cAMP accumulation (Flash Plate) in HEK293 cells expressing the human H3 receptors; assay type: cell-based; settings: cAMP accumulation stimulated with isoprenaline, h-H3-HEK 293 cells
T1 construct: expressed in transfected cells; pcDNA3)
Description: The ability of the compounds to interact with the histamine H3 receptor as agonists, inverse agonists and/or competitive antagonists, was determined by an in vitro functional assay utilizing membranes from HEK293 cell expressing the human H3 receptors.
The H3 receptor was cloned by PCR and subcloned into the pcDNA3 expression vector. Cells stably expressing the H3 receptor were generated by transfecting the H3-expression vectors into HEK 293 cells and using G418 to select for H3 clones. The h-H3-HEK 293 clones were cultured in DMEM with glutamax, 10% FCS, 1% Pen/Strep and 1 mg/ml G 418 at 37° C. and 5% CO2.
The H3 receptor expressing cells were washed once with phosphate buffered saline (PBS) and harvested using versene (GIBCO-BRL). PBS was added and the cells were centrifuged for 5 min at 188 g. The cell pellet was resuspended in stimulation buffer to a concentration of 1×10^6 cells/ml. cAMP accumulation was measured using the Flash Plate® cAMP assay (NEN™ Life Science Products). […] The plates were then sealed with plastic, shaken for 30 minutes, allowed to stand overnight, and finally the radioactivity was counted in the Cobra II auto gamma topcounter. EC50 values were calculated by non-linear regression analysis of dose response curves (6 points minimum) using GraphPad Prism. Kb values were calculated by Schild plot analysis.

H3 receptor [2] = target: T1, H3 receptor; test: Binding Assay III: [125I]-iodoproxifan binding to membranes of h-H3-HEK 293 clones; settings: 30 pM [125I]-iodoproxifan, h-H3-HEK 293 membranes
Description: The H3 receptor was cloned by PCR and subcloned into the pcDNA3 expression vector. Cells stably expressing the H3 receptor were generated by transfecting the H3-expression vectors into HEK 293 cells and using G418 to select for H3 clones. The h-H3-HEK 293 clones were cultured in DMEM with glutamax, 10% FCS, 1% Pen/Strep and 1 mg/ml G 418 at 37° C. and 5% CO2. Before harvesting, the confluent cells were rinsed with PBS and incubated with Versene for approximately 5 minutes. The cells were flushed with PBS and DMEM and the cellsuspension collected in a tube and centrifuged for 5-10 min at 1500 rpm in a Heraeus Sepatech Megafuge 1.0. The pellet was resuspended in 10-20 vol. Hepes buffer (20 mM Hepes, 5 mM MgCl2, pH 7.1 (KOH)) and homogenized for 10-20 seconds using a Ultra-Turrax homogenizer. The homogenate was centrifuged for 30 min at 23 000 g. The pellet was resuspended in 5-10 ml Hepes buffer, homogenized 5-10 seconds with the Ultra-Turrax and centrifuged for 10 min at 23 000 g. Following this centrifugation step, the membrane pellet was resuspended in 2-4 ml Hepes buffer, homogenized with a syringe or teflonhomogenizer, and the protein concentration determined. The membranes were diluted to a protein concentration of 1-5 mg/ml in Hepes buffer, aliquoted and kept at −80° C. until use. […]

T1 sequence (Q9Y5N1 whole entry): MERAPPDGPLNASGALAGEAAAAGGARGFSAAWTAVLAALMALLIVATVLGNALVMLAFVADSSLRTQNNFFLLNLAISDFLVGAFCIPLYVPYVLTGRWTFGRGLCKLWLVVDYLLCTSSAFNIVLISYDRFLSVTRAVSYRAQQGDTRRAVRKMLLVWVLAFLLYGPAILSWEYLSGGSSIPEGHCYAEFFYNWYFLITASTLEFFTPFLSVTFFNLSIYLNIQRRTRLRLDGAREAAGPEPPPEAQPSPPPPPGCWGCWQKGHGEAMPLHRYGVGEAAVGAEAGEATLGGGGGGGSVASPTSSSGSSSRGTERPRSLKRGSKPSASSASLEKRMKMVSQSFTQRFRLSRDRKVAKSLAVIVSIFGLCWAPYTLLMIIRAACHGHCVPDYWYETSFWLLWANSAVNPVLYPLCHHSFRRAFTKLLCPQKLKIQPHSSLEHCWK

Compound	EC50 (H3 receptor [1]) [µM]	IC50 (H3 receptor [2]) [µM]
Cc1[nH]cnc1CCCCOc1ccc2ccccc2c1 [Example 15/5, 5-Methyl-4-[4-(naphthalen-2-yloxy)-butyl]-1H-imidazole]	< 0.1	< 0.1
Cc1[nH]cnc1CCCOCc1cccc(I)c1 [Example 16/14, 4-[3-(3-Iodo-benzyloxy)-propyl]-5-methyl-1H-imidazole]	< 0.05	< 0.05
